Experimental data published in patent publication EP4711370A1, “DEUTERATED CAMPTOTHECIN COMPOUND, AND PREPARATION THEREFOR AND USE THEREOF” (Shanghai Qilu Pharmaceutical Research and Development …, priority 2023, dated 2024).

Tests used:
[1] = Pharmacokinetics in mice; type: in vivo, Balb/c mice; conditions: 3 mg/kg, Mouse PK (IV, 3 mpk), single injection, plasma
Description: Objective: To evaluate the pharmacokinetic characteristics of the compounds of the present disclosure in mice.
Balb/c mice were taken, with 12 mice per group (half male and half female), randomly grouped, and administered a single injection of the sample (Formulation A: 5% DMSO + 95% (15% sulfobutyl-β-cyclodextrin-normal saline), Formulation B: 5% DMSO-10% Solutol HS 15-85% normal saline, diluted according to the dose). Blood samples were collected at crossover time points, including before administration and at 5 min, 30 min, 1 h, 2 h, 4 h, 6 h, 8 h, 10 h, and 24 h after administration. Plasma was collected, and the sample concentration in plasma was detected by LC-MS. Table 2-1. PK parameters of the compounds of the present disclosure in mice

[2] = Pharmacokinetics in rats; type: in vivo, SD rats; conditions: 3 mg/kg, Rat PK (IV, 3 mpk), single injection, plasma, Formulation A
Procedure: Objective: To evaluate the pharmacokinetic characteristics of the compounds of the present disclosure in rats.
SD rats (purchased from Beijing Vital River Laboratory Animal Technology Co., Ltd.) were used, with 6 rats per group (half male and half female), randomly grouped. A single injection of the sample (Formulation A: 5% DMSO + 95% (15% sulfobutyl-β-cyclodextrin-normal saline), diluted according to the dose) was administered. Blood samples were collected at crossover time points: before administration and at 5 min, 30 min, 1 h, 2 h, 4 h, 6 h, 8 h, 10 h, and 24 h after administration. Plasma was collected, and the sample concentration in plasma was detected by LC-MS. Table 3-1. PK parameters of the compounds of the present disclosure in rats

[3] = system: NCI-N87 (human gastric cancer cells); test: In vitro antitumor activity (cell proliferation inhibition, CellTiter-Glo); type: cell-based; conditions: 48 hours of incubation
Description: (§1) Objective: To detect the in vitro inhibitory activity of the compounds of the present disclosure against NCI-N87 (human gastric cancer cells), Calu-3 (human lung adenocarcinoma cells), MDA-MB-453 (human breast cancer cells), KPL-4 (human breast cancer cells), or MDA-MB-468 (human breast cancer cells).
(§2) Tumor cells in the logarithmic growth phase, including NCI-N87 (source: ATCC, catalog number: CRL-5822), Calu-3 (source: ATCC, catalog number: HTB-55), MDA-MB-453 (source: ATCC, catalog number: HTB-131), KPL-4 (source: Nanjing Cobioer Biosciences, catalog number: CBP60379), or MDA-MB-468 (source: ATCC, catalog number: HTB-132), were seeded into cell plates at a density of 5,000 cells/well. The cell plates were then incubated in a 37°C, 5% CO2 cell culture incubator for 12-16 hours. 100 µL of sample (starting at 10 µM, 4-fold dilution, 10 concentrations) was added to each well. After gentle shaking, the plates were placed in the incubator for further incubation. After 48 hours of incubation, 70 µL of CellTiter-Glo™ (Promega, catalog number: G7572) working solution was added, gently shaken to lyse the cells, and the plates were read on a microplate reader. The cell proliferation inhibition rate was calculated using the following formula: cell proliferation inhibition rate = (1-sample well/control well)×100%. GraphPad Prism 8.0 software was used to plot the Log value of sample concentration as the x-axis and Cytotoxicity% as the y-axis. The data were analyzed by Nonlinear regression (curve fit) to obtain the IC50 values for each sample, with specific results shown in Tables 1-1 and 1-2. Table 1-1. In vitro activity test results of the compounds of the present disclosure

[4] = system: Calu-3 (human lung adenocarcinoma cells); test: as above; type: cell-based; conditions: Calu-3 cells, 48 hours of incubation
Description: as §1, §2

[5] = system: MDA-MB-468 (human breast cancer cells); test: as above; type: cell-based; conditions: MDA-MB-468 cells, 48 hours of incubation
Description: as §1, §2

[6] = system: MDA-MB-453 (human breast cancer cells); test: as above; type: cell-based; conditions: MDA-MB-453 cells, 48 hours of incubation
Description: as §1, §2

[7] = Repeated administration toxicity experiment in rats; type: in vivo, SD rats; conditions: for Clinical observation: course after ataxia / Clinical observation: animals showed ataxia immediately after administration / Body weight / food intake / Clinical observation: died during recovery (among animals with ataxia): tail vein injection for 7 consecutive days; for Clinical observation: animals showed ataxia immediately after administration / Clinical observation: died during recovery (among animals with ataxia): main trial group + TK group; for gross dissection: lungs: gross dissection on D8 after administration; for Body weight / food intake: 0.3 mg/kg and 1.0 mg/kg, Compound 2 stated relative to Dxd at the same dose
Procedure: Test sample preparation: The test sample was weighed according to the predetermined weight into a glass vial. First, 1 mL of DMSO was added and mixed until the test sample was dissolved, followed by the addition of 1 mL of Solutol HS-15.
SD rats (purchased from Beijing Vital River) were used as test animals. […] During the acclimation period, one cage-side observation was conducted daily; during the administration period, all animals were subjected to clinical observations twice daily (morning and afternoon). Reactions in various aspects, including the skin, fur, eyes (sclera), ears, nose, oral cavity, chest, abdomen, urogenital area, limbs, as well as respiration, movement, urination, defecation (including urine and feces color), and behavioral changes, were recorded. Daily weight data of the main test group animals were documented. For animals scheduled for dissection, terminal body weight (fasted) was measured before dissection. The food intake of the test animals was also recorded.
At the end of the administration, gross dissection was performed on D8 after administration.

[8] = In vitro plasma stability; type: in vitro ADME; conditions: 37°C, 5 µM
Procedure: 398 µL of plasma was taken and preheated to 37°C, then co-incubated for 15 minutes. 2 µL of the sample solution was added to the plasma to prepare a final sample concentration of 5 µM. The above solution was co-incubated at 37°C, and 50 µL aliquots were taken at 0, 15, 30, 60, and 120 minutes, followed by the addition of 450 µL of ice-cold acetonitrile (containing the internal standard). The solution was vortexed for 10 minutes, centrifuged, and the remaining content of the parent substrate was detected by the LC-MS/MS method. For specific results, refer to Table 4-1. Table 4-1. Plasma stability of the compounds of the present disclosure

[9] = system: KPL-4 (human breast cancer cells); test: In vitro antitumor activity (cell proliferation inhibition, CellTiter-Glo); type: cell-based; conditions: KPL4, KPL-4 cells, 48 hours of incubation
Description: as §1, §2

[10] = in vivo, Formulation A (5% DMSO + 95% (15% sulfobutyl-β-cyclodextrin-normal saline))
[11] = in vivo, Formulation B (5% DMSO-10% Solutol HS 15-85% normal saline)
[12] = both sexes, Balb/c, Formulation A (5% DMSO + 95% (15% sulfobutyl-β-cyclodextrin-normal saline))

| SMILES | IC50 [3] [nM] | IC50 [4] [nM] | IC50 [5] [nM] | IC50 [6] [nM] | Cmax [1, 11] [ng/mL] | half-life [1, 11] [min] | Residual content of parent toxin at 120 minutes (relative to 0 minutes) ([8]; CD1 mouse plasma) [%] | Residual content of parent toxin at 120 minutes (relative to 0 minutes) ([8]; Human plasma) [%] | other results |
| --- | --- | --- | --- | --- | --- | --- | --- | --- | --- |
| [2H]C1([2H])OC(=O)[C@](O)(CC)c2cc3n(c(=O)c21)Cc1c-3nc2cc(F)c(C)c3c2c1[C@@H](NC(=O)CO)CC3 [Compound 2] | 7.17 | 27.1 | 0.98 | 114 |  |  |  |  | Cmax [1, 10]: 449 ng/mL; half-life [1, 10]: 27.3 min; AUC(0-inf) ([2]; in vivo): 218 ng·h/mL; Cmax ([2]; in vivo): 406 ng/mL; clearance ([2]; in vivo): 235 mL/min/kg; half-life ([2]; in vivo): 39.7 min; Clinical observation: course after ataxia ([7]; 0.3 mpk dose group): then gradually recovered; Clinical observation: animals showed ataxia immediately after administration ([7]; 0.3 mpk dose group): 13%; Clinical observation: course after ataxia ([7]; 1 mpk dose group): then gradually recovered; Clinical observation: animals showed ataxia immediately after administration ([7]; 1 mpk dose group): 25%; average food intake, ♀ rats ([7]; female rats, compared with the control (Dxd) group at the same dose): For ♀ rats, the average food intake in the Compound 2 group was higher than that in the control group at the same dose;; gross dissection: lungs [7]: no such pathological changes were found in any dose group; Body weight [7]: At the same dose, the effects of Compound 2 and Dxd on rat body weight and food intake were generally comparable;; food intake [7]: At the same dose, the effects of Compound 2 and Dxd on rat body weight and food intake were generally comparable; |
| [2H]C1([2H])OC(=O)[C@](O)(CC)c2cc3n(c(=O)c21)Cc1c-3nc2cc(F)c(C)c3c2c1[C@@H](NC(=O)C[C@H](C)O)CC3 [Compound 6] | 13.3 | 46.6 | 3.11 | 121 | 2580 | 40.7 | 105.93 | 94.89 |  |
| [2H]C1([2H])OC(=O)[C@](O)(CC)c2cc3n(c(=O)c21)Cc1c-3nc2cc3c(cc2c1CCCO)OCO3 [Compound 12] | 7.29 |  | 1.7 |  |  |  |  |  | IC50 [9]: 7.05 nM |
| [2H]C1([2H])OC(=O)[C@](O)(CC)c2cc3n(c(=O)c21)Cc1c-3nc2cc(F)c(C)c3c2c1[C@@H](NC(=O)[C@H](O)C1CC1)CC3 [Compound 3] | 4.37 | 17.1 | 0.97 | 40.3 | 4300 | 36.4 | 104.97 | 105.54 |  |
| CC[C@@]1(O)C(=O)OCc2c1cc1n(c2=O)Cc2c-1nc1cc(F)c(C)c3c1c2[C@@H](NC(=O)CO)CC3 [Dxd] |  |  |  |  |  |  |  |  | Cmax [1, 12]: 521 ng/mL; half-life [1, 12]: 70.2 min; AUC(0-inf) ([2]; both sexes, SD): 352 ng·h/mL; Cmax ([2]; both sexes, SD): 621 ng/mL; clearance ([2]; both sexes, SD): 144 mL/min/kg; half-life ([2]; both sexes, SD): 70.3 min; Clinical observation: course after ataxia ([7]; 0.3 mpk dose group): the other rats gradually recovered; Clinical observation: animals showed ataxia immediately after administration ([7]; 0.3 mpk dose group): 31%; Clinical observation: died during recovery (among animals with ataxia) ([7]; 0.3 mpk dose group): 40%; Clinical observation: course after ataxia ([7]; 1 mpk dose group): the other rats gradually recovered; Clinical observation: animals showed ataxia immediately after administration ([7]; 1 mpk dose group): 31%; Clinical observation: died during recovery (among animals with ataxia) ([7]; 1 mpk dose group): 40%; gross dissection: lungs [7]: Focal/punctate dark red discoloration was observed in the lungs of some deceased rats; Body weight [7]: Slow weight gain/weight loss;; food intake [7]: Decreased food intake |
| [2H]C1([2H])OC(=O)[C@](O)(CC)c2cc3n(c(=O)c21)Cc1c-3nc2cc(F)c(C)c3c2c1[C@@H](NC(=O)[C@@H](O)C1CC1)CC3 [Compound 4] | 4.06 | 19.3 | 0.88 | 55.3 |  |  |  |  |  |
| [2H]C1([2H])OC(=O)[C@](O)(CC)c2cc3n(c(=O)c21)Cc1c-3nc2cc(F)c(C)c3c2c1[C@@H](NC(=O)C[C@@H](C)O)CC3 [Compound 5] | 9.18 | 32.9 | 1.3 | 94.6 | 3520 | 40.4 | 96.02 | 107.73 |  |
